Measured values: patent US20240425478A1, “CYCLOPENTYLPYRAZOLE CDK2 INHIBITORS” (Genentech, Inc., priority 2021, published 2024)
Read-outs that look alike come from different tables or passages of the source.

Key:
SKOV-3 (ATCC HTB-77) = assay: SKOV-3 EdU incorporation cell proliferation assay (CDK4/6-dependent); assay type: cell-based; conditions: for IC50: Homo sapiens, cellular assay, read-out: CDK4/6 SKOV-3 IC50; for FS SKOV-3/OVISE: fold selectivity, cellular IC50 ratio
Method in brief: (§1)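 EdU incorporation (0.5 μM final, last 8 h) follows a 16 h compound exposure at 37 °C, 5% CO2 in RPMI plus 10% FBS, 0.5% DMSO. After fixation, imaging scores EdU-positive cells; a 4-parameter logistic fit of that fraction gives IC50.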

[1] = system: OVISE (JCRB1043, CCNE1-amplified); assay: OVISE EdU incorporation cell proliferation assay (CDK2-dependent); assay type: cell-based; conditions: for IC50: cellular assay, read-out: CDK2 OVISE IC50; for FS SKOV-3/OVISE / FS p-H3/OVISE: fold selectivity; for FS p-H3/OVISE: cellular p-H3 IC50 over OVISE IC50
Method in brief: as §1

[2] = target: T1, Cyclin Dependent Kinase 2/Cyclin E1 (CDK2-cycE1) (Homo sapiens, UniProt P24941); assay: CDK2-cycE1 TR-FRET (LANCE) enzyme assay; assay type: biochemical; conditions: for FS CDK1/CDK2 / FS CDK4/CDK2: fold selectivity;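 on improvement in potency against CDK2 (Ki) over Comparator C: fold lower CDK2 Ki than comparator c (Ki 0.032 µM)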
T1 construct: purchased ProQinase 0050-0055-1
Method in brief: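 Kinase reaction buffer: 50 mM HEPES pH 7.5, 10 mM MgCl2, 2 mM TCEP, 0.05% BGG, 0.01% Brij 35, with 30 min compound–enzyme pre-incubation.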

HCT116 cells = assay: p-H3 HCT-116 mitotic release cell proliferation assay (cellular CDK1); assay type: cell-based; conditions: Homo sapiens, HCT-116; Table O, cellular assay; read-out: CDK1 p-H3 IC50
Method in brief: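 Phospho-Histone H3 (Ser10) in lysates was quantified by a two-antibody HTRF FRET read (≥2 h, room temperature). Before this, HCT116 cells held in mitosis by 16 h of 500 nM nocodazole were treated with compound for 4 h at 37 °C, 0.1% DMSO.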

[3] = target: T2, Cyclin Dependent Kinase 4/Cyclin D3 (CDK4-cycD3) (Homo sapiens, UniProt P11802); assay: CDK4-cycD3 TR-FRET (LANCE) enzyme assay; assay type: biochemical; conditions: for Ki: Table O, enzymatic assay; for FS CDK4/CDK2: fold selectivity, enzymatic Ki ratio
T2 construct: purchased Carna Biosciences 04-105
Method in brief: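 Compound dose responses pre-incubated 30 min with enzyme mix in 50 mM HEPES pH 7.5, 10 mM MgCl2, 2 mM TCEP, 0.05% BGG, 0.01% Brij 35. Reaction quenched with EDTA (15 mM final); Eu-anti-phospho-4E-BP1 TR-FRET detection, acceptor/donor ratio. Ki derived by Morrison equation.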

[4] = target: T3, Cyclin Dependent Kinase 1/Cyclin A2 (CDK1-cycA2) (Homo sapiens, UniProt P06493); assay: CDK1-cycA2 TR-FRET (Lance) enzyme assay; assay type: biochemical; conditions: for Ki: Table O, enzymatic assay; for FS CDK1/CDK2: fold selectivity, enzymatic Ki ratio
T3 construct: purchased ProQinase 0134-0054-1
Method in brief: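 TR-FRET (Lance) detection of phospho-4E-BP1 with a europium-labelled antibody after EDTA quench (15 mM final); signal taken as acceptor/donor ratio. Enzyme and compound were pre-incubated 30 min in HEPES pH 7.5 buffer with MgCl2, TCEP, BGG and Brij 35. Ki derived by Morrison fit.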

[5] = Table O, cellular SKOV-3 IC50 over OVISE IC50
[6] = Table O, enzymatic assay, read-out: CDK2 Ki
[7] = Table O, enzymatic CDK1 Ki over CDK2 Ki
[8] = Table O, enzymatic CDK4 Ki over CDK2 Ki

T2 sequence (P11802 whole entry): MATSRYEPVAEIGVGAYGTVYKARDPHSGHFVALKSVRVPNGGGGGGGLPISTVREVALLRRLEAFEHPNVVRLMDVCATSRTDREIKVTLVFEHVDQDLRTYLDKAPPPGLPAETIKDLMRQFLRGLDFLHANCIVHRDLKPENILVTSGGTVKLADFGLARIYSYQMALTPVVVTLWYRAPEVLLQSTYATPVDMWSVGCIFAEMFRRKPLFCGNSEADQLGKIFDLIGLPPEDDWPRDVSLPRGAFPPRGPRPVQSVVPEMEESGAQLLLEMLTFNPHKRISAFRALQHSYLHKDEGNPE
T2 sequence (P30281 whole entry partner): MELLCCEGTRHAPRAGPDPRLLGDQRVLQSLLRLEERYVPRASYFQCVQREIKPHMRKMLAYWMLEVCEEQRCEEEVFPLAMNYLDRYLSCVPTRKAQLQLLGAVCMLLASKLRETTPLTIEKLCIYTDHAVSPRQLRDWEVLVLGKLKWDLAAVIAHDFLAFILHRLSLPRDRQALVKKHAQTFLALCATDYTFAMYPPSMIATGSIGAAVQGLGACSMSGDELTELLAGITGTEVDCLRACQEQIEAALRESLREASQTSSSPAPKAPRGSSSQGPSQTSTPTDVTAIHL
T3 sequence (P06493 whole entry): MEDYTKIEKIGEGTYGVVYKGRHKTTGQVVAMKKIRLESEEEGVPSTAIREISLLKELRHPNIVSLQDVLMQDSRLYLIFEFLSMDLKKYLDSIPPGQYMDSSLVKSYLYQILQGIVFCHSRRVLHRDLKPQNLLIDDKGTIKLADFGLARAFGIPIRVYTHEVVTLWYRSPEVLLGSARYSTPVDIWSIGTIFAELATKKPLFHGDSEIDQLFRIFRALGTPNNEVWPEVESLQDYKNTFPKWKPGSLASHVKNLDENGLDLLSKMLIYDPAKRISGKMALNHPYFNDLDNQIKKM
T3 sequence (P20248 whole entry partner): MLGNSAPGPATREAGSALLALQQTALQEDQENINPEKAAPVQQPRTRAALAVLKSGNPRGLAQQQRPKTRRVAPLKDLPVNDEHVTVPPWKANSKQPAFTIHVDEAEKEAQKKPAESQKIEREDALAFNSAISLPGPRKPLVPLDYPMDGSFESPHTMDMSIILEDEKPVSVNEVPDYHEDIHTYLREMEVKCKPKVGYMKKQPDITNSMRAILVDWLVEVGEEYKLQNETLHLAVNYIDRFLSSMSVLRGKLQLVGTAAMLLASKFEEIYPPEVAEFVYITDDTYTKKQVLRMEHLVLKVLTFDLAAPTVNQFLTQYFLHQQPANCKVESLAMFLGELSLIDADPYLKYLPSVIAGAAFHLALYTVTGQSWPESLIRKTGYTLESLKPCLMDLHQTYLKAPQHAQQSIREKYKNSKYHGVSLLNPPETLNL

## COc1nccc(Nc2cc([C@H]3CC[C@@H](OC(=O)NC(C)C)C3)[nH]n2)n1 [Example 2F, (1R,3S)-3-(3-((2-methoxypyrimidin-4-yl)amino)-1H-pyrazol-5-yl)cyclopenty1 isopropylcarbamate]
SKOV-3 (ATCC HTB-77); SK-OV-3, Table O
  IC50: 3500 nM
SKOV-3 (ATCC HTB-77); SK-OV-3, Table Q
  IC50: 3500 nM
[1]; Table O
  IC50: 65 nM
  FS p-H3/OVISE: 1.3
[1]; [5]
  FS SKOV-3/OVISE: 58
[1]; Table Q, (+) sign after FS SKOV-3/OVISE
  increased fold-selectivity SKOV-3/OVISE over Comparator C: (+) (The (+) sign in Table Q signifies desirable increased fold-selectivity of the exemplary compounds over Comparator C)
[1]; Table Q, cellular
  FS SKOV-3/OVISE: 58
[1]; Table Q, in brackets after OVISE IC50, Comparator C 5.5 μM
  improvement in CDK2 OVISE cell potency over Comparator C: 84.6 fold
[2]
  improvement in potency against CDK2 (Ki) over Comparator C: 78 fold
[2]; [6]
  Ki: 0.41 nM
[2]; [7]
  FS CDK1/CDK2: 21
[2]; [8]
  FS CDK4/CDK2: 270
[2]; Table Q, (+) sign after FS CDK4/CDK2
  increased fold-selectivity CDK4/CDK2 over Comparator C: (+) (The (+) sign in Table Q signifies desirable increased fold-selectivity of the exemplary compounds over Comparator C)
[2]; Table Q, enzymatic assay, read-out: CDK2 Ki
  Ki: 0.41 nM
[2]; Table Q, enzymatic
  FS CDK1/CDK2: 21
  FS CDK4/CDK2: 270
[2]; read-out: CDK2 activity / potency (enzymatic assay)
  Ki: ≤ 1 nM
HCT116 cells
  IC50: 76 nM
[3]
  Ki: 190 nM
[4]
  Ki: 11 nM

## O=C(NC12CC(C1)C2)O[C@@H]1CC[C@H](c2cc(Nc3ccc(N4CCOCC4)nc3)n[nH]2)C1 [Example 9K, (1R,3S)-3-(3-((6-morpholinopyridin-3-yl)amino)-1H-pyrazol-5-yl)cyclopentyl bicyclo[1.1.1]pentan-1-ylcarbamate]
SKOV-3 (ATCC HTB-77); SK-OV-3, Table O
  IC50: 710 nM
[1]; Table O
  IC50: 190 nM
  FS p-H3/OVISE: 0.26
[1]; [5]
  FS SKOV-3/OVISE: 3.7
[2]; [6]
  Ki: 5.6 nM
[2]; [7]
  FS CDK1/CDK2: 7.3
[2]; [8]
  FS CDK4/CDK2: 12
HCT116 cells
  IC50: 49 nM
[3]
  Ki: 67 nM
[4]
  Ki: 41 nM

## Cn1cc(Nc2cc([C@H]3CC[C@@H](OC(=O)NC(C)(C)C)C3)[nH]n2)ccc1=O [Example 1, (1R,3S)-3-(3-((1-methyl-6-oxo-1,6-dihydropyridin-3-yl)amino)-1H-pyrazol-5-yl)cyclopentyl tert-butylcarbamate]
SKOV-3 (ATCC HTB-77); SK-OV-3, Table O
  IC50: > 20000 nM
SKOV-3 (ATCC HTB-77); SK-OV-3, Table R
  IC50: > 20000 nM
SKOV-3 (ATCC HTB-77); SK-OV-3, Table S
  IC50: > 20000 nM
SKOV-3 (ATCC HTB-77); SKOV-3/OVISE fold-selectivity cellular assay data
  selectivity for CDK2 over CDK4 compared with Comparator E: increase in selectivity for CDK2 over CDK4
SKOV-3 (ATCC HTB-77); Table R
  FS SKOV-3/OVISE increased over Comparator D, (+) sign: (+)
  FS SKOV-3/OVISE: > 91
SKOV-3 (ATCC HTB-77); Table S
  FS SKOV-3/OVISE increased over Comparator E, (+) sign: (+)
  FS SKOV-3/OVISE: > 91
[1]; Table O
  IC50: 220 nM
  FS p-H3/OVISE: 0.45
[1]; [5]
  FS SKOV-3/OVISE: >91
[1]; Table R, in brackets after OVISE IC50
  CDK2 OVISE IC50 fold change in potency versus Comparator D: 17 fold
[1]; Table S, in brackets after OVISE IC50
  CDK2 OVISE IC50 fold change in potency versus Comparator E: 0.8 fold
[2]; [6]
  Ki: 7.6 nM
[2]; [7]
  FS CDK1/CDK2: 36
[2]; [8]
  FS CDK4/CDK2: 92
[2]; Table R, enzymatic assay, read-out: CDK2 Ki
  Ki: 7.6 nM
[2]; Table R, in brackets after CDK2 Ki
  CDK2 Ki fold change in potency versus Comparator D: 0.4 fold
[2]; Table S, enzymatic assay, read-out: CDK2 Ki
  Ki: 7.6 nM
[2]; Table S, in brackets after CDK2 Ki
  CDK2 Ki fold change in potency versus Comparator E: 0.1 fold
HCT116 cells
  IC50: 100 nM
[3]
  Ki: 700 nM
[3]; Table R
  FS CDK4/CDK2 increased over Comparator D, (+) sign: (+)
  FS CDK4/CDK2: 92
[3]; Table S
  FS CDK4/CDK2 increased over Comparator E, (+) sign: (+)
  FS CDK4/CDK2: 92
[4]
  Ki: 270 nM
[4]; Table R
  FS CDK1/CDK2 increased over Comparator D, (+) sign: (+)
  FS CDK1/CDK2: 36
[4]; Table S
  FS CDK1/CDK2: 36
